One data set relates to cornea. Description: Confocal laser scanning opthalmoscope test (subacute ocular toxicity). Particulars: rabbit cornea, 25 μl three times a day for four days; (XV) aqueous solution, Cyclosporin A 1% in olive oil.
A short description of a further data set: in vitro. The class given is in vitro ADME. Particulars: rabbit, cerebrospinal or other body fluid, pH 7. Here is the method: This conversion kinetics test was carried out by incubating, at 37° C., 25 μl of a sample of the solution described above, with gentle stirring, with 8 μl of fresh rabbit tear. 2 μl samples were taken at intervals of 1, 2, 3 and 30 minutes, and were then analyzed by HPLC.

Data set [1] is classed as in vitro ADME. Particulars: bovine, serum.
For data set [2] the following is noted: rat, in vivo, iv, 10 mg/kg.
Data set [3] in a line: Water-solubility by visual examination in 67 mM Sorensen phosphate buffers. The class given is physicochemical. The settings on record: 67 mM Sorensen phosphate buffer, ambient temperature.
Another data set concerns esterases. Description: Enzymatic stability: hydrolysis in Hepes buffer in the presence of esterases. The settings on record: 50 mM Hepes buffer, pH 7.4, 37° C., FIG. 1.
Where [4] appears, read: T1/22 (terminal half-life time).

Molecules are shown by their SMILES. Read-outs that look alike come from different tables or passages of the source. Bounds are passed on as bounds.

Procedure for cornea: The solutions were sterilized by passing them through 0.22 μm nitrocellulose filters.
This test was carried out on the same type of animal as previously. 25 μl of a solution as described above were instilled onto the cornea of the right eye three times a day for four days, and then once on the fourth day just before observation. After the final installation, the rabbits were sedated by administering ketamine hydrochloride and xylazine. A total of 25 μl of a solution of sodium fluorescein at 0.5% by weight/volume were instilled onto the eye in order to allow selective labeling of the surfaces possibly damaged. The eye was then rinsed for one minute with a saline solution at 37° C.
The opthalmoscope was coupled to an image analysis system in order to be able to reconstitute an image in three dimensions and to allow evaluation of the damaged areas.
Procedure for esterases: During the incubation at 37° C., 40 μl aliquots are sampled at appropriate time periods and analyzed by HPLC and ESI-MS.

One may read the half-life as the time in which the quantity being followed falls by half. High values mean slow decline, low ones rapid decline. As usually defined, the AUC(0-inf) is the area under the concentration-time curve extrapolated to infinity. A low value points to low exposure. The MRT is the average time that molecules of a dose stay in the body. The term clearance denotes a measure of how efficiently the substance is removed, as volume per time. Low readings indicate inefficient removal, high ones efficient removal. As to `C/C=C/C[C@@H](C)[C@@H](OC(=O)CN(C)C(=O)[C@H](CCCC[N+](C)(C)C)NC(=O)OC(C)OC(C)=O)[C@H]1C(=O)N[C@@H](CC)C(=O)N(C)CC(=O)N(C)[C@@H](CC(C)C)C(=O)N[C@@H](C(C)C)C(=O)N(C)[C@@H](CC(C)C)C(=O)N[C@@H](C)C(=O)N[C@H](C)C(=O)N(C)[C@@H](CC(C)C)C(=O)N(C)[C@@H](CC(C)C)C(=O)N(C)[C@@H](C(C)C)C(=O)N1C` (stereo partly shown) [(XV), MeBmt(O-Sar-Lys(Nε^+Me3)-COOCH(CH3)OCOCH3))^1-CsA.I^−], the “CLSO, % lesions (corneal lesions)” value with cornea was found to be 7%. The metabolised at 0.05 h, 0.76 % (weight/volume) Cyclosporin A equivalent in “in vitro” amounted to 3%. In data set [1], this compound showed a half-life of 3.66 h. In data set [2], this compound showed an AUC(0-inf) of 66600 ng·h/mL, an MRT of 15.3 h and a clearance of 2.5 mL/min/kg. In data set [2] (T1/21 (initial half-life time)), this compound showed a half-life of 0.55 h. This compound showed a half-life in data set [2] (setting [4]) of 11.8 h.
As a reminder, the solubility is the concentration that dissolves in the medium under given conditions. `C/C=C/C[C@@H](C)[C@@H](OC(=O)CN(C)C(=O)[C@H](COP(=O)(O)O)NC(=O)OC(C)OC(C)=O)[C@H]1C(=O)N[C@@H](CC)C(=O)N(C)CC(=O)N(C)[C@@H](CC(C)C)C(=O)N[C@@H](C(C)C)C(=O)N(C)[C@@H](CC(C)C)C(=O)N[C@@H](C)C(=O)N[C@H](C)C(=O)N(C)[C@@H](CC(C)C)C(=O)N(C)[C@@H](CC(C)C)C(=O)N(C)[C@@H](C(C)C)C(=O)N1C` (stereo partly shown) [(XVI), MeBmt(O-Sar-Ser(OPO(OH)2)—COOCH(CH3)OCOCH3)^1-CsA]: the solubility in data set [3] (pH 5) was more than 20 mM; in data set [3] (pH 6, read-out: Water-solubility at pH = 6) it was more than 20 mM; in data set [3] (pH 7), more than 20 mM; in data set [3] (pH 8, read-out: Water-solubility at pH = 8) it was more than 20 mM. In the data set on esterases, the “hydrolysis in the presence of esterases (release of Cyclosporin A)” value is listed as “rapidly degrades to release the Cyclosporin A”. The figures for the half-life in data set [1], in data set [2] (T1/21 (initial half-life time)) and in data set [2] (setting [4]) were 3.5 h, 0.2 h and 11.8 h, respectively. The compound further had an area under the curve AUC(0-inf) in data set [2] of 44700 ng·h/mL. This compound yielded an MRT in data set [2] of 14.9 h. The clearance in data set [2] was 3.67 mL/min/kg.

Source of the values: patent US6995139B2, “Cyclic undecapeptide pro-drugs and uses thereof” (Debiopharm S.A., priority 2001, dated 2006).
